Reference: patent US8916679B2, “Peptides binding to the dimer interface of thymidylate synthase for the treatment of cancer” (Universita′ degli Studi di Modena e Reggio Emilia, priority 2009, dated 2014)
Where no end group is shown, it is not given here.

Columns and labels:
[1] = target: T1, hTS enzyme (human Thymidylate synthase) (Homo sapiens, UniProt P04818); assay: Peptidic inhibitor Ki value determination vs dUMP and vs mTHF; assay type: biochemical; conditions: Lineweaver-Burk analysis, FIG. 4
T1 construct: made in house; host or cells: E. coli (printed as 'BL21 strain DH5α'), vector pQE80L
T1 sequence (P04818 with tags, fused parts or gaps): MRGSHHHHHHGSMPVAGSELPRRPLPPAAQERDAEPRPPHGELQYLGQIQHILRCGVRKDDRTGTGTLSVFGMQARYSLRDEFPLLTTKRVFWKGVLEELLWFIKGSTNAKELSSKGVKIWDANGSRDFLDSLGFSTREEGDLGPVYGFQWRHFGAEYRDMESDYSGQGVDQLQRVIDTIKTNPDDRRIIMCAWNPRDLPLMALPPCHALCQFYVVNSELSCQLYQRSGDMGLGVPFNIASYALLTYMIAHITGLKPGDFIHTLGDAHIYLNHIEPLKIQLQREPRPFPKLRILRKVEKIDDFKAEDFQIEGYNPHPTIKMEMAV

A2780 cells = assay: Cell growth assay (crystal violet dye); assay type: cell-based, human; conditions: 10 μM, FIG. 7
Protocol: Cultures were equilibrated with humidified 5% CO2 in air at 37° C.
Cells were seeded into 24-well plates and allowed to attach overnight. Peptides were delivered into cells by means of a peptide delivery system, following the procedures indicated by the manufacturer. On selected days, after removal of the tissue culture medium, cell growth was determined by a modification of the crystal violet dye assay. The extracted dye was proportional to cell number.

Sequence	type of inhibition (kinetic data) [1]	relative activity against A2780 cells (A2780 cells)
DFIHTLGD [SEQ ID NO: 1]	competitive inhibition pattern	
YVVNSELS [SEQ ID NO: 44]		particularly active
